Reference: the supplement of paper PMC11061612

How the values were obtained:
Assay in all cases: Bliss excess, mean over the matrix (fraction); higher = more synergy
[1] = system: ST486 (Burkitt's Lymphoma)
Summary of the method: (§1)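 Bliss excess equals the observed combination effect minus the expected value EA + EB − EA·EB, where EA and EB are the effects of each agent alone. Combination Emax is the second-highest inhibition within the matrix. Inhibition was scaled from CellTiter-Glo 2.0 luminescence, with 0 set by vehicle wells and 1 by blank wells, after 72 hours of two-drug dosing of cells plated in 1536-well plates.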

[2] = system: ESO51 (Esophageal Adenocarcinoma)
Summary of the method: as §1

[3] = system: HCC1419 (Breast Carcinoma)
Summary of the method: as §1

[4] = system: KP-3 (Pancreatic Carcinoma)
Summary of the method: as §1

[5] = system: MOLM-13 (Acute Myeloid Leukemia)
Summary of the method: as §1

[6] = system: T-T (Esophageal Squamous Cell Carcinoma)
Summary of the method: as §1

[7] = system: NCI-H520 (Squamous Cell Lung Carcinoma)
Summary of the method: as §1

[8] = system: SJSA-1 (Osteosarcoma)
Summary of the method: as §1

[9] = system: SK-GT-2 (Gastric Carcinoma)
Summary of the method: as §1

[10] = system: M059J (Glioblastoma)
Summary of the method: as §1

[11] = system: KYSE-270 (Esophageal Squamous Cell Carcinoma)
Summary of the method: as §1

[12] = system: IM-95 (Gastric Carcinoma)
Summary of the method: as §1

[13] = system: HCC1187 (Breast Carcinoma)
Summary of the method: as §1

[14] = system: CHSA8926 (Chondrosarcoma)
Summary of the method: as §1

[15] = system: MN-60 (B-Lymphoblastic Leukemia)
Summary of the method: as §1

[16] = system: NCI-H2731 (Mesothelioma)
Summary of the method: as §1

[17] = system: SNU-398 (Hepatocellular Carcinoma)
Summary of the method: as §1

[18] = system: DAN-G (Pancreatic Carcinoma)
Summary of the method: as §1

[19] = system: KMS-12-BM (Plasma Cell Myeloma)
Summary of the method: as §1

[20] = system: NCI-H526 (Small Cell Lung Carcinoma)
Summary of the method: as §1

Structure (SMILES) | Bliss excess [1] | Bliss excess [2] | Bliss excess [3] | Bliss excess [4] | Bliss excess [5] | Bliss excess [6] | Bliss excess [7] | Bliss excess [8] | Bliss excess [9] | Bliss excess [10] | Bliss excess [11] | Bliss excess [12] | Bliss excess [13] | Bliss excess [14] | Bliss excess [15] | Bliss excess [16] | Bliss excess [17] | Bliss excess [18] | Bliss excess [19] | Bliss excess [20]
Cc1c2c(nn1C)CSCc1cc(n(C)n1)CSc1cc(c3ccccc3c1)OCCCc1c(C(=O)O)n(C)c3c-2c(Cl)ccc13 [AZD5991] + CCN(CCO)CCCOc1ccc2c(Nc3cc(CC(=O)Nc4cccc(F)c4)[nH]n3)ncnc2c1 [AZD2811] (first compound max 1 µM, 7x7, partner max 1 µM) | -0.0575 | 0.0031 | -0.0638 | -0.0026 | 0.024 | 0.0614 | 0.0632 | 0.0839 | 0.039 | -0.0074 | 0.0998 | 0.0605 | -0.0292 | 0.0305 | 0.0086 | -0.0023 | 0.0359 | 0.0055 | 0.0257 | 0.123
Cc1cc2ncnn2cc1Nc1ncc2c(n1)n(C1CCOCC1)c(=O)n2C [AZD7648] + O=C(c1cc(Cc2n[nH]c(=O)c3ccccc23)ccc1F)N1CCN(C(=O)C2CC2)CC1 [Olaparib] (first compound max 10 µM, 7x7, partner max 10 µM) | 0.0048 | -0.0056 | -0.066 | -0.0409 | -0.134 | -0.0642 | -0.0742 | -0.036 | -0.0297 | -0.097 | -0.034 | -0.0303 | -0.0092 | -0.0511 | -0.0115 | -0.069 | -0.0381 | -0.0568 | 0.027 | -0.0129
COc1nnc2ccc(N3CCC(c4ccc(OCCN5CCN(C)C(=O)[C@H]5C)cc4)CC3)nn12 [AZD5153] + Cn1cnc2c(F)c(Nc3ccc(Br)cc3Cl)c(C(=O)NOCCO)cc21 [Selumetinib] (first compound max 1 µM, 7x7, partner max 10 µM) | 0.031 | -0.0408 | 0.0238 | -0.0122 | 0.0238 | 0.0702 | 0.0319 | -0.0377 | 0.0006 | -0.0635 | 0.0576 | 0.0649 | -0.0067 | -0.0599 | -0.0593 | -0.0445 | -0.0298 | -0.0368 | -0.0114 | -0.0183
CCN(CCO)CCCOc1ccc2c(Nc3cc(CC(=O)Nc4cccc(F)c4)[nH]n3)ncnc2c1 [AZD2811] + O=C(c1cc(Cc2n[nH]c(=O)c3ccccc23)ccc1F)N1CCN(C(=O)C2CC2)CC1 [Olaparib] (first compound max 1 µM, 7x7, partner max 10 µM) | -0.0464 | -0.0379 | -0.0532 | -0.0484 | -0.0094 | -0.0073 | 0.041 | -0.0232 | 0.0218 | -0.0213 | 0.0212 | 0.0087 | -0.0668 | 0.0124 | -0.0206 | 0.0001 | -0.0223 | 0.0092 | 0.0456 | 0.0486
Cc1c2c(nn1C)CSCc1cc(n(C)n1)CSc1cc(c3ccccc3c1)OCCCc1c(C(=O)O)n(C)c3c-2c(Cl)ccc13 [AZD5991] + CN(C)CCCOc1ccc(-c2ccc3ncc4c(c3c2)n(C2CCOCC2)c(=O)n4C)cn1 [AZD0156] (first compound max 1 µM, 7x7, partner max 1 µM) | -0.0716 | 0.0193 | 0.0105 | 0.0077 | -0.0329 | -0.0025 | -0.0011 | 0.0256 | 0.0228 | 0.006 | 0.0347 | -0.0198 | -0.0266 | 0.0117 | 0.0047 | -0.0444 | -0.0018 | 0.0141 | -0.0445 | 0.0054
Cc1c2c(nn1C)CSCc1cc(n(C)n1)CSc1cc(c3ccccc3c1)OCCCc1c(C(=O)O)n(C)c3c-2c(Cl)ccc13 [AZD5991] + C[C@@H](Nc1cc(F)cc(F)c1)c1cc(C(=O)N(C)C)cc2c(=O)cc(N3CCOCC3)oc12 [AZD8186] (first compound max 1 µM, 7x7, partner max 3 µM) | -0.0659 | -0.0134 | -0.0038 | -0.0351 | -0.0351 | 0.0265 | -0.0474 | -0.105 | 0.015 | -0.0842 | 0.027 | -0.0348 | -0.0176 | 0.091 | -0.0454 | -0.0626 | -0.0004 | 0.0051 | 0.0019 | 0.0192
CC1(C)CCC(CN2CCN(c3ccc(C(=O)NS(=O)(=O)c4ccc(NCC5CCOCC5)c([N+](=O)[O-])c4)c(Oc4cnc5[nH]ccc5c4)c3)CC2)=C(c2ccc(Cl)cc2)C1 [Venetoclax] + C1CN(CCC1(C(=O)N[C@@H](CCO)C2=CC=C(C=C2)Cl)N)C3=NC=NC4=C3C=CN4 [Capivasertib] (first compound max 1 µM, 7x7, partner max 3 µM) | -0.0348 | -0.0379 | -0.057 | -0.0257 | 0.0074 | 0.0155 | -0.0275 | -0.0509 | -0.0211 | 0.0099 | 0.0002 | -0.0067 | -0.0227 | -0.0364 | -0.0485 | -0.066 | -0.0081 | -0.0689 | 0.0559 | -0.0095
CN(CCO)CC[C@H](CSc1ccccc1)Nc1ccc(S(=O)(=O)NC(=O)c2ccc(N3CCC([C@@H](O)c4ccccc4-c4ccc(Cl)cc4)CC3)cc2)cc1S(=O)(=O)C(F)(F)F [AZD4320] + C[C@@H](Nc1cc(F)cc(F)c1)c1cc(C(=O)N(C)C)cc2c(=O)cc(N3CCOCC3)oc12 [AZD8186] (first compound max 1 µM, 7x7, partner max 3 µM) | 0.0176 | 0.0996 | 0.0282 | 0.0002 | 0.0619 | 0.054 | 0.0618 | -0.0489 | 0.0296 | 0.0316 | 0.0225 | 0.0117 | 0.0582 | 0.0889 | -0.0104 | 0.0288 | 0.0201 | 0.0484 | 0.0652 | 0.0434
CN(CCO)CC[C@H](CSc1ccccc1)Nc1ccc(S(=O)(=O)NC(=O)c2ccc(N3CCC([C@@H](O)c4ccccc4-c4ccc(Cl)cc4)CC3)cc2)cc1S(=O)(=O)C(F)(F)F [AZD4320] + CN(C)CCCOc1ccc(-c2ccc3ncc4c(c3c2)n(C2CCOCC2)c(=O)n4C)cn1 [AZD0156] (first compound max 1 µM, 7x7, partner max 1 µM) | -0.0086 | -0.0095 | -0.0645 | -0.0462 | -0.0649 | -0.0047 | -0.0185 | 0.0377 | 0.0006 | 0.0015 | -0.0152 | -0.0683 | 0.0062 | -0.0797 | 0.0032 | -0.0485 | -0.0009 | -0.0031 | 0.0211 | -0.0092
Cc1cc2ncnn2cc1Nc1ncc2c(n1)n(C1CCOCC1)c(=O)n2C [AZD7648] + C[C@@H]1COCCN1C2=NC(=NC(=C2)C3(CC3)[S@](=N)(=O)C)C4=C5C=CNC5=NC=C4 [AZD6738] (first compound max 10 µM, 7x7, partner max 10 µM) | 0.0077 | 0.0153 | -0.0221 | 0.0351 | 0.0003 | 0.0146 | -0.0108 | 0.0225 | -0.0034 | 0.0282 | 0.0008 | 0.0163 | 0.0005 | -0.0325 | -0.0135 | 0.055 | -0.0097 | -0.0093 | 0.0125 | 0.0174
COc1cccc(OCCCN)c1-c1cc(Nc2cnc(C#N)cn2)n[nH]1 [Prexasertib] + CN(C)CCCOc1ccc(-c2ccc3ncc4c(c3c2)n(C2CCOCC2)c(=O)n4C)cn1 [AZD0156] (first compound max 1 µM, 7x7, partner max 1 µM) | -0.0139 | -0.0414 | -0.0285 | 0.0021 | -0.0248 | 0.0061 | -0.0486 | -0.0246 | -0.0519 | -0.0826 | -0.0024 | 0.0384 | -0.0016 | -0.039 | -0.0077 | -0.012 | 0.0501 | -0.0132 | 0.0343 | -0.0158
COc1nnc2ccc(N3CCC(c4ccc(OCCN5CCN(C)C(=O)[C@H]5C)cc4)CC3)nn12 [AZD5153] + C=CCn1c(=O)c2cnc(Nc3ccc(N4CCN(C)CC4)cc3)nc2n1-c1cccc(C(C)(C)O)n1 [AZD1775] (first compound max 1 µM, partner max 1 µM) | -0.0492 | -0.0594 | -0.0724 | 0.0038 | -0.0225 | -0.029 | -0.0115 | -0.0313 | -0.0008 | -0.106 | -0.067 | -0.0146 | -0.0172 | 0.0085 | -0.067 | 0.0147 | -0.0315 | -0.0496 | -0.0243 | -0.0252
CN(C)CCCOc1ccc(-c2ccc3ncc4c(c3c2)n(C2CCOCC2)c(=O)n4C)cn1 [AZD0156] + CCN(CCO)CCCOc1ccc2c(Nc3cc(CC(=O)Nc4cccc(F)c4)[nH]n3)ncnc2c1 [AZD2811] (first compound max 1 µM, 7x7, partner max 1 µM) | -0.11 | -0.0147 | -0.0427 | -0.0417 | -0.0617 | -0.0262 | 0.0012 | -0.0348 | -0.0156 | -0.0165 | -0.0307 | 0.0925 | -0.0596 | -0.0389 | -0.016 | -0.0279 | -0.0184 | 0.0128 | 0.13 | 0.0113
COc1cccc(OCCCN)c1-c1cc(Nc2cnc(C#N)cn2)n[nH]1 [Prexasertib] + CCc1c2c(nc3ccc(O)cc13)-c1cc3c(c(=O)n1C2)COC(=O)[C@]3(O)CC [SN-38] (first compound max 1 µM, 7x7, partner max 0.3 µM) | 0.0412 | -0.0376 | -0.0098 | 0.0321 | 0.0073 | 0.12 | -0.0483 | -0.129 | 0.034 | -0.0373 | 0.0028 | 0.0026 | 0.164 | -0.0024 | -0.0452 | 0.0108 | 0.0441 | 0.0239 | 0.0381 | -0.0164
